The values below come from patent publication US12364690B2, “Therapeutic agent for bile duct cancer” (NATIONAL CANCER CENTER, priority 2015, dated 2025).

Series [1] addresses NIH3T3 cells transfected with FGFR2-TXLNA (Homo sapiens, UniProt P21802, DEL126-151/R152G). The conditions noted are these: final concentration 0.2 μM; soft agar; FIG. 5 and FIG. 6. As for the experimental part:
(§1) Using the following apparatus, the activity of FGFR inhibitors on the transformation capacity of FGFR2 fusion polypeptide was evaluated.

Series [2] addresses NIH3T3 cells transfected with FGFR2-KCTD1 (Homo sapiens, UniProt P21802). To be noted: final concentration 0.2 μM; soft agar; FIG. 5 and FIG. 6. As for the experimental part: as §1
Series [3] has as its target NIH3T3 cell transfected with FGFR2-BICC1 type2 (Homo sapiens, UniProt P21802, DEL126-151/R152G). As for the experimental part:
as §1

Series [4] has as its system NIH3T3 cell line transfected with the FGFR2 fusion gene. The series can be described thus: Immunoblot (Western blot) analysis of downstream signal of FGFR2 fusion gene. Type of series: cell-based, mouse. To be noted: final concentration of FGFR inhibitor 0.2 μM or 0.5 μM, FIG. 3. How it is done: First, the wild-type FGFR2 fusion gene or KD mutant FGFR2 fusion gene was transfected into the mouse fibroblast cell line NIH3T3 using the retrovirus, and the obtained cell line was cultured in a liquid culture medium. The cultured cell line was subjected to serum starvation, and then treated with a culture medium containing an FGFR inhibitor before extracting the total proteins. Herein, the protein encoded by FGFR2-BICC1 type2, the protein encoded by FGFR2-TXLNA and the protein encoded by FGFR2-KCTD1 are shown in SEQ ID NOs: 6, 2 and 4, respectively.
Next, the NIH3T3 cell line transfected with the FGFR2 fusion gene was subjected to Western blot analysis after adding the FGFR inhibitor to the cell line (the final concentration of the FGFR inhibitor: 0.2 μM or 0.5 μM) and extracting the total proteins similarly.
(In general: In western blotting, separated proteins are transferred to a membrane and probed.)

Series [5] in a line: Relative body weight in transplant model mice (safety of dosage). Format: in vivo, mouse. The conditions noted are these: 6.25, 12.5, 25 and 50 mg/kg orally once a day; dosage judged as safe. As for the experimental part: Based on the tumor volume on the first day of administration, the mice were grouped so that mean values of the tumor volume of the groups were nearly equal to each other. […]. The Compound A solution was continuously administered orally to the mice in the Compound A administration group once a day at a dosage of 20 mL/kg. On the other hand, only the solvent (water for injection) was similarly administered to the mice in the control group. The Administration was carried out to FGFR2-BICC1 type2 or FGFR2-KCTD1 transplant model mice for 7 days and to FGFR2-TXLNA transplant model mice for 11 days.
On the first day and the last day of the administration, body weight was measured for each mice in the control group and the Compound A administration group. The ratio of the body weight on the last day to the body weight on the first day (relative body weight: RBW) was calculated. When the RBW of the Compound A administration group/the RBW of the control group was 0.9 or more, the dosage was judged as safe. The corresponding dosage was 6.25, 12.5, 25 and 50 mg/kg.

Read-outs that look alike come from different tables or passages of the source.

Sequence of NIH3T3 cell transfected with FGFR2-BICC1 type2 (P21802 with tags, fused parts or gaps isoform P21802-22 DEL37-62/R63G): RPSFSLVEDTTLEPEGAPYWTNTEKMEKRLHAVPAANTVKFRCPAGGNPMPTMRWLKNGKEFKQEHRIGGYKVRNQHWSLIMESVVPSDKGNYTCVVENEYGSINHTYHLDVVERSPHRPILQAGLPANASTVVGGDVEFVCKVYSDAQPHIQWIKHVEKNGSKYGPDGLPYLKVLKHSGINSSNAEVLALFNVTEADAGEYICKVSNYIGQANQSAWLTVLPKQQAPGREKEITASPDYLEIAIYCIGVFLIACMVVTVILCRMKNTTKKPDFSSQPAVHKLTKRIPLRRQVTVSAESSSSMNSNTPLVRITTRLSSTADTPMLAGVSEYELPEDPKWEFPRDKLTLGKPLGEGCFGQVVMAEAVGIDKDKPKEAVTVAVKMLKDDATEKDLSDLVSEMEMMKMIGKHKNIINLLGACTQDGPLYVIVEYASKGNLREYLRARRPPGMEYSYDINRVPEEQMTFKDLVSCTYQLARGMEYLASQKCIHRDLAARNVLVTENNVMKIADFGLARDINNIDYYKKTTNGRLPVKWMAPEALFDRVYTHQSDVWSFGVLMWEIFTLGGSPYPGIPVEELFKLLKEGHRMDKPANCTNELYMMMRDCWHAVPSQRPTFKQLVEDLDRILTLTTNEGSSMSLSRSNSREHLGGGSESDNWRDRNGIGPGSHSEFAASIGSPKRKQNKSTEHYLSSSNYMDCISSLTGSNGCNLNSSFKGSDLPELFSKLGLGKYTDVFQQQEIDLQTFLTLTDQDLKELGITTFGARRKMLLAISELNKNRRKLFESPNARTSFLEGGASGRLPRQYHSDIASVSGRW
Sequence of NIH3T3 cells transfected with FGFR2-KCTD1 (P21802 with tags, fused parts or gaps isoform P21802-22): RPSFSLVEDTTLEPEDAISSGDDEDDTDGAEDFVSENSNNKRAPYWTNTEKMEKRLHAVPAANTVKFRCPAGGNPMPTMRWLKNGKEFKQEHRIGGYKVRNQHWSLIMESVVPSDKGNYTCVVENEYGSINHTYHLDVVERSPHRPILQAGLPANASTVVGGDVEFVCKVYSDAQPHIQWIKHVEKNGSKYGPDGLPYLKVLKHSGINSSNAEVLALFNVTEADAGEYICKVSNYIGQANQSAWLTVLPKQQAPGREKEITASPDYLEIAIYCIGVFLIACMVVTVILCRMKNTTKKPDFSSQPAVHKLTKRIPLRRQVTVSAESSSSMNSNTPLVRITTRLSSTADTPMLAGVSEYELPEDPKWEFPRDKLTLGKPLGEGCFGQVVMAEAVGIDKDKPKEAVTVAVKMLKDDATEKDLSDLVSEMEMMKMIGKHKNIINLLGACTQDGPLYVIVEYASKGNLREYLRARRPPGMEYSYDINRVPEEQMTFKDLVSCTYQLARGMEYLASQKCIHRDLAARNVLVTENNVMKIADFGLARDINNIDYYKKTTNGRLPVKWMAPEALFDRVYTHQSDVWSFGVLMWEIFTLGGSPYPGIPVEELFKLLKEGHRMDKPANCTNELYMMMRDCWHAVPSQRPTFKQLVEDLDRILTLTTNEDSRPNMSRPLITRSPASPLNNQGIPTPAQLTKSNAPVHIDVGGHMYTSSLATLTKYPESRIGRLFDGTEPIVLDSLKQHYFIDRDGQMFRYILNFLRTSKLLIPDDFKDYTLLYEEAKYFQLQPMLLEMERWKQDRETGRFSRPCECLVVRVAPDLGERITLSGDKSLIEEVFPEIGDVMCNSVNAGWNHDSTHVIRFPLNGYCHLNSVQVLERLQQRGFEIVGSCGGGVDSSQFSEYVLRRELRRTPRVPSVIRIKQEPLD
Sequence of NIH3T3 cells transfected with FGFR2-TXLNA (P21802 with tags, fused parts or gaps isoform P21802-22 DEL37-62/R63G): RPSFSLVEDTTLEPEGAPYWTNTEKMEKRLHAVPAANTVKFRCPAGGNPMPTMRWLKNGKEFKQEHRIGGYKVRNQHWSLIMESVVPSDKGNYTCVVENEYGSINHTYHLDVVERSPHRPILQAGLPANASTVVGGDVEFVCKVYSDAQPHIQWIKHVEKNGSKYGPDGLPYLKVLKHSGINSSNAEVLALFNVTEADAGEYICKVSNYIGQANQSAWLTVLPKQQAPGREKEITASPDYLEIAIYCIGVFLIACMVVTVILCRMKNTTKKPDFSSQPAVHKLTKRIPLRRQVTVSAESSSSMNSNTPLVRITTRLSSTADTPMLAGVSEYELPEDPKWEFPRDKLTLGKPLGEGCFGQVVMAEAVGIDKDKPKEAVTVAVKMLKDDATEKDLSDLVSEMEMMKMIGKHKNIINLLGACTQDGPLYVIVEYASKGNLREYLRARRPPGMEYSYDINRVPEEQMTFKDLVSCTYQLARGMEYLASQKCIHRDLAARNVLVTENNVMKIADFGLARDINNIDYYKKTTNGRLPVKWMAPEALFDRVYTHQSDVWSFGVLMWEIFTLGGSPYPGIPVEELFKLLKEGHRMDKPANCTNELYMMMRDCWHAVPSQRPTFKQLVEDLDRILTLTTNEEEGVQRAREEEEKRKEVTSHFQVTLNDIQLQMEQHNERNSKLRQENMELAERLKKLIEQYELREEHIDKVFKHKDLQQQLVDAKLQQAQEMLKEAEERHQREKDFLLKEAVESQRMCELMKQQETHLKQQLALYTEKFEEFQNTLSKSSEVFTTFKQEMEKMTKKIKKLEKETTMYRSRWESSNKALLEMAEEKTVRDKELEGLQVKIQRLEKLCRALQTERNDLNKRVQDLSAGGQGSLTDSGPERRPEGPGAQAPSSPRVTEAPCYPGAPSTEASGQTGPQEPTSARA

Turning to `CCN1CCN(c2ccc(Nc3cc(N(C)C(=O)Nc4c(Cl)c(OC)cc(OC)c4Cl)ncn3)cc2)CC1` [BGJ398], the anchorage independent growth result is “significantly suppressed” in series [1]; “significantly suppressed” in series [2]; “little suppressed” in series [3] (final concentration 0.2 μM, soft agar, FIG. 5 and FIG. 6); “suppressed” in series [3] (final concentration 1.0 μM, FIG. 7). In series [4], the “phosphorylation of FGFR” value is “suppressed”. In addition, the “phosphorylation of MAPK” value in series [4] is “significantly suppressed”.

Consider `CCN(CC)CCCCNc1ncc2cc(-c3cc(OC)cc(OC)c3)c(NC(=O)NC(C)(C)C)nc2n1` [PD173074], for which, in series [4], the “phosphorylation of FGFR” value was “suppressed” and the “phosphorylation of MAPK” value is reported as “significantly suppressed”.

`CNC(=O)n1ccc2cc(Oc3ccnc(NC(=O)c4ccc(C5CCN(CCO)CC5)cc4)c3)c(OCCOC)cc21` [Compound A, 5-((2-(4-(1-(2-hydroxyethyl)piperidin-4-yl)benzamide)pyridin-4-yl)oxy)-6-(2-methoxyethoxy)-N-methyl-1H-indole-1-carboxamide 1.5 succinate]: the “RBW of the Compound A administration group/the RBW of the control group” value in series [5] is reported as at least 0.9. In series [4], the “phosphorylation of FGFR” value is “suppressed” and the “phosphorylation of MAPK” value is reported as “significantly suppressed”.
